Data published in ChEMBL document CHEMBL3301546, “MMV Malaria Box yeast growth screening”.

How the values were obtained:
Format in all cases: functional
Saccharomyces cerevisiae [1] = assay: (§1) MMV: Growth assays were conducted using the prototrophic S. cerevisiae strain JHY222. Each MMV compound (0.1 mM) was tested in rich media containing dextrose as a carbon source (Yeast Extract, Peptone, Dextrose; YPD). The growth rate in the presence of each MMV compound was calculated as follows: (i) the first 10 OD readings were averaged and subtracted from all OD readings of the corresponding curve to set the baseline of the growth curve to zero, and (ii) the area under the curve (AUC) was then calculated as the sum of all OD readings. […] A relative growth value was calculated as follows: AUC(DRUG) - AUC(DMSO)/AUC(DMSO); where AUC(DMSO) represents growth measured in a DMSO control well that was on the same microtiter plate of the drug-treated culture.
Saccharomyces cerevisiae [2] = assay: as §1, with “minimal” for “rich”, “ethanol and glycerol” for “dextrose”, “as” for “as a”, “sources” for “source”, “Nitrogen Base, Ethanol, Glycerol; YNBEG).” for “Extract, Peptone, Dextrose; YPD).”
Saccharomyces cerevisiae [3] = assay: as §1, with “minimal” for “rich”, “Nitrogen Base,” for “Extract, Peptone,”, “YNBD).” for “YPD).”

| Compound | Relative Growth (Saccharomyces cerevisiae [1]) | Relative Growth (Saccharomyces cerevisiae [2]) | Relative Growth (Saccharomyces cerevisiae [3]) |
| --- | --- | --- | --- |
| COc1ccc2c(c1)C1(Nc3ccccc3-c3nc4ccccc4n31)C(=O)N2 (stereo not drawn) | -0.0036 | -0.0059 | 0.0329 |
| CCOc1cc(CNC(C)C(O)c2ccccc2)cc(Cl)c1OCC (stereo not drawn) | -0.0689 | -0.0694 | 0.088 |
| CCOc1c(Cl)cc(CNCC(O)c2ccccc2)cc1OC (stereo not drawn) | -0.0592 | -0.2647 | 0.0136 |
| OC(CNCC1CCCO1)Cn1c2ccc(Cl)cc2c2cc(Cl)ccc21 (stereo not drawn) | -0.0004 | 0.0106 | 0.0307 |
| COc1ccc2nc(C)cc(Nc3ccccc3O)c2c1 | -0.0232 | -0.0329 | 0.0332 |
| CCOc1ccccc1CN1CCc2nc3cc(C(C)(C)C)nn3c(O)c2C1 | -0.6117 | -0.4424 | -0.2912 |
| Cc1cc(N2CCCC2)nc(Nc2ccc(NC(=O)CCc3ccccc3)cc2)n1 | -0.047 | -0.093 | -0.0661 |
| CC(C)(C)CC(C)(C)NCC(O)COc1ccc(Cl)cc1Cl (stereo not drawn) | -0.1373 | -0.1363 | 0.0104 |
| O=C(Nc1ccc(Br)cc1)Nc1cccc(Cl)c1 | -1.0018 | -0.1301 | -0.1739 |
| CN(C)CCNc1cc(-c2ccccc2)nc2ccccc12 | -0.0237 | 0.0694 | 0.1058 |
| COCCNCC(O)Cn1c2ccc(Cl)cc2c2cc(Cl)ccc21 (stereo not drawn) | -0.9998 | -0.4771 | -0.1893 |
| COc1ccc2nc(C)cc(Nc3ccc(Cl)cc3)c2c1 | -0.0836 | -0.1037 | 0.0064 |
| CCC(O)c1ccc(Br)cc1NC(=O)c1cccc(Cl)c1 (stereo not drawn) | 0.0228 | 0.102 | 0.0885 |
| COc1ccc2nc(C)cc(Nc3cccc(O)c3)c2c1.Cl | -0.0539 | 0.0008 | 0.0539 |
| COc1cc2cc(C(=O)Nc3ccccc3)c(N)nc2cc1OC | -1.0109 | 0.0392 | -0.0986 |
| O=c1nc(C=Cc2ccc(Br)cc2)oc2ccccc12 | -0.0705 | 0.0189 | 0.007 |
| COc1ccc2nc(N)nc(C)c2c1 | -0.0479 | -0.0106 | 0.0302 |
| Cc1sc2ncnc(Sc3nc4ccccc4[nH]3)c2c1C | 0.0241 | 0.0545 | 0.0477 |
| O=C(O)C(=O)O.Oc1ccccc1CN1CCN(C(c2ccccc2)c2ccccc2)CC1 | -0.1402 | 0.0338 | 0.1461 |
| CN1CCN(c2c3c(c(C#N)c4nc5ccccc5n24)CCC3)CC1 | -0.0644 | -0.4878 | 0.2469 |
| Cc1cc(Nc2cccc(F)c2)nc(NCc2ccccc2)n1 | -0.0448 | -0.2557 | 0.0258 |
| CCOc1ccc(C2N(C)c3ccccc3N2C)cc1 | -0.6451 | -1.002 | -1.0114 |
| CCN(Cc1ccccc1)C1CCN(Cc2cc(Br)ccc2O)CC1.O=C(O)C(=O)O | -0.0428 | 0.0185 | 0.0515 |

| Compound | Relative Growth (Saccharomyces cerevisiae [1]) | Relative Growth (Saccharomyces cerevisiae [2]) | Relative Growth (Saccharomyces cerevisiae [3]) |
| --- | --- | --- | --- |
| Cl.Clc1cc(Br)ccc1-c1ccc(CNCC2CCNCC2)o1 | 0.004 | -0.083 | 0.0133 |
| CCOc1ccccc1NC(=O)CN1CCN(C(=O)c2ccco2)CC1 | -0.0315 | -0.0386 | 0.1567 |
| COc1ccc(-c2nonc2NC(=O)c2cccc(Cl)c2)cc1OC | -0.028 | 0.0561 | 0.1832 |
| CCOc1cc2c(cc1OCC)C(c1cc(C)c(O)c(C)c1)NCC2.Cl (stereo not drawn) | -0.1843 | -0.7495 | -0.1636 |
| COc1cc(SC)ccc1C(=O)N1CCCC(C)C1 (stereo not drawn) | -0.0213 | -0.0182 | 0.0716 |
| CC(C)c1ccc(CNCC(O)c2ccccc2)cc1.Cl (stereo not drawn) | -0.02 | 0.0017 | 0.1145 |
| CCOc1cc2c(cc1OCC)C(c1cc(Cl)c(O)c(OCC)c1)NCC2 (stereo not drawn) | 0.0051 | -0.0121 | 0.0679 |
| O=C(O)C(=O)O.Oc1ccc(Br)cc1CN1CCN(Cc2cccc(F)c2)CC1 | -0.1015 | -0.3839 | -0.047 |
| O=c1nc(C=Cc2ccc(Cl)cc2)oc2ccccc12 | 0.0204 | 0.0415 | 0.0988 |
| O=C(NCc1ccco1)C1CCN(S(=O)(=O)c2ccc(Br)cc2)CC1 | -0.1145 | -0.2359 | -0.0814 |
| CN(C)c1ccc(N2C(N)=NC(N)=NC2(C)C)cc1 | -0.0542 | 0.007 | 0.0279 |
| COc1ccc(Nc2nc(NCc3ccccc3)c3ccccc3n2)cc1 | 0.0094 | -0.0366 | 0.0331 |
| COc1cc2c(cc1OC)C1=NNC(=O)C1=NC(C)(C)C2 | -0.48 | -0.3659 | -0.0857 |
| Cl.OC(CNCc1ccccc1)Cn1c2ccccc2c2ccccc21 (stereo not drawn) | -0.0131 | 0.03 | 0.0554 |
| Oc1c2c(nc3cc(-c4ccccc4)nn13)CCCC2 | -0.4545 | -0.0208 | 0.0363 |
| Clc1ccc2c(N3CCCC3)ccnc2c1 | -0.0453 | -0.0954 | 0.0172 |
| CCOc1ccc(CCNC(=O)c2cccs2)cc1OCC | -1.0059 | -0.3956 | -0.7048 |
| Cc1cc(N2CCN(C3CCCC3)CC2)n2c(nc3ccccc32)c1C#N | -0.0263 | -0.0829 | 0.1152 |
| CCc1ccc(Nc2cc(C)nc3nc(C)nn23)cc1 | 0.0328 | -0.0737 | -0.1477 |
| C=CCc1c(C)nc2ccccc2c1O | -0.0062 | 0.1025 | -0.0056 |
| Nc1ccn([C@@H]2O[C@H](CO)[C@@H](O)[C@H]2O)c(=O)n1 [CYTIDINE] | -0.0768 | -0.4063 | 0.1163 |
| O=C(Nc1cccc(C2=NCCN2)c1)Nc1cccc(C2=NCCN2)c1 [IMIDOCARB] | -0.365 | 0.0151 | 0.0218 |
| CN(C)c1ccc(C(O)(c2ccc(N(C)C)cc2)c2ccc(N(C)C)cc2)cc1 [METHYLROSANILINE] | -0.0138 | -0.4054 | -0.0186 |
